Measured values: the supplement of paper PMC10307832

Legend:
Experiment in all cases: relative viability (nuclei count vs DMSO), 5 days (fraction); higher = more cells survive
RO-3306 + Olaparib = compound: C1=CC2=C(C=CC(=C2)C=C3C(=O)NC(=NCC4=CC=CS4)S3)N=C1 [RO-3306] + O=C(c1cc(Cc2n[nH]c(=O)c3ccccc23)ccc1F)N1CCN(C(=O)C2CC2)CC1 [Olaparib] (partner 8 µM)
Summary of the method: (§1)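 Medians of duplicate plates are given as relative viability. That measure is the nuclei count in treated wells divided by the count in vehicle wells. Counts were taken on 4× images of lung cancer cell lines in 1536-well plates, 5 days after pin-tool dosing the day after seeding with one drug alone or a fixed anchor-drug dose plus five library-drug doses (not always all listed) in √10 steps.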

[1] = compound: O=S(=O)(c1ccccc1)N(CC(F)(F)F)c1ccc(C(O)(C(F)(F)F)C(F)(F)F)cc1 + Cc1nc(Nc2ncc(C(=O)Nc3c(C)cccc3Cl)s2)cc(N2CCN(CCO)CC2)n1 [Dasatinib] (partner 0.075 µM)
Summary of the method: as §1

[2] = compound: O=S(=O)(c1ccccc1)N(CC(F)(F)F)c1ccc(C(O)(C(F)(F)F)C(F)(F)F)cc1 + CC(=O)Nc1cccc(-n2c(=O)n(C3CC3)c(=O)c3c(Nc4ccc(I)cc4F)n(C)c(=O)c(C)c32)c1 [Trametinib] (partner 0.02 µM)
Summary of the method: as §1

RO-3306 + Luminespib = compound: C1=CC2=C(C=CC(=C2)C=C3C(=O)NC(=NCC4=CC=CS4)S3)N=C1 [RO-3306] + CCNC(=O)c1noc(-c2cc(C(C)C)c(O)cc2O)c1-c1ccc(CN2CCOCC2)cc1 [Luminespib] (partner 0.01 µM)
Summary of the method: as §1

Cell Line	relative viability (RO-3306 + Olaparib; first compound 0.01 µM)	relative viability (RO-3306 + Olaparib; first compound 0.03162 µM)	relative viability (RO-3306 + Olaparib; first compound 0.1 µM)	relative viability (RO-3306 + Olaparib; first compound 0.3162 µM)	relative viability (RO-3306 + Olaparib; first compound 1 µM)	relative viability ([1]; first compound 0.8 µM)	relative viability ([1]; first compound 2.53 µM)	relative viability ([1]; first compound 8 µM)	relative viability ([2]; first compound 0.8 µM)	relative viability ([2]; first compound 2.53 µM)	relative viability ([2]; first compound 8 µM)	relative viability (RO-3306 + Luminespib; first compound 0.01 µM)	relative viability (RO-3306 + Luminespib; first compound 0.03162 µM)	relative viability (RO-3306 + Luminespib; first compound 0.1 µM)	relative viability (RO-3306 + Luminespib; first compound 0.3162 µM)	relative viability (RO-3306 + Luminespib; first compound 1 µM)
201T	0.861	0.855	0.82	0.828	0.828	0.463	0.435	0.497	0.712	0.666	0.681	1.02	1.05	1.02	1.01	1.05
EBC-1	0.838	0.559	0.632	0.839	0.751											
LCLC-97TM1	0.406	0.479	0.315	0.367	0.278	0.724	0.734	0.682		0.234	0.165	0.765	0.711	0.61	0.752	0.93
NCI-H522	0.619	0.561	0.634	0.546	0.608	0.821	0.904	1.07	0.607	0.781	0.689	1.04	1.12	1.13	1.14	1.22
NCI-H1395	0.503	0.488	0.491	0.425	0.408	0.321	0.375	0.414	1.13	1	0.965	0.915	0.878	0.622	0.653	0.519
LU99A	0.275	0.233	0.233	0.25	0.2	0.652	0.603	0.629	0.521	0.541	0.464	0.203	0.245	0.233	0.25	0.275
Calu-6	0.568	0.576	0.599	0.611	0.604											
NCI-H2228	0.603	0.601	0.645	0.654	0.524	0.415	0.401	0.363	0.693	0.371	0.429	0.2	0.148	0.147	0.14	0.255
NCI-H1915	0.276	0.235	0.263	0.246	0.255	0.284	0.276	0.291	0.303	0.261	0.255	0.975	0.493	0.879	0.805	0.749
NCI-H2405	0.844	0.863	0.887	0.899	0.732	0.117	0.15	0.134	0.673	0.615	0.707	0.753	0.705	0.849	0.607	0.7
NCI-H661	0.751	0.754	0.741	0.755	0.818	1.03	0.886	0.832	0.677	0.574	0.533	0.869	1.02	0.934	0.953	0.936
